The text below walks through data of ChEMBL document CHEMBL1201862, “PubChem BioAssay data set” (2004).

Molecules are shown by their SMILES. Active and inactive are the calls of the source.

Assay [1] has as its target Voltage-gated inwardly rectifying potassium channel KCNH2 (Homo sapiens, UniProt Q12809). As to conditions: Potency.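 Further: confirmatory quantitative high-throughput screen measuring inhibition of hERG channel activity.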
Assay [2] can be described thus: viability of uninfected HEp-2 cells – cell-based, HTS, cytotoxicity control for RSV inhibitor project, dose response (AID 2410). Type of assay: functional. As to conditions: human respiratory syncytial virus.
Assay [3] addresses Cytochrome P450 2C19 (Homo sapiens, UniProt P33261). As to the kind of experiment: Cytochrome panel assay with activity outcomes. Panel member name: p450-cyp2c19 Compounds with AC50 equal or less than 10 uM are considered active. Type of assay: functional. As to conditions: read-out: AC50.
In assay [4] the target is Cytochrome P450 2C9 (Homo sapiens, UniProt P11712).
Assay [5] is described as follows: viability loss of HMLE_sh_eGFP cells – cell-based, luminescence, counter-screen for HMLE_sh_ECad selective toxicity project, dose response (AID 463074).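 Further: HMLE human mammary epithelial cells expressing control shRNA against eGFP.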 Format: functional, Homo sapiens. In general terms: A counterscreen serves to expose hits that act by an unwanted route or on another target.
Assay [6] in a line: Luminescence Cell-Based Dose Retest to Confirm Inhibitors of Cancer Stem Cells. [Related pubchem assays (depositor defined):AID2717, AID2721]. Type of assay: functional. As to conditions: Homo sapiens.
The nature of assay [7]: Trypanosoma cruzi growth suppression in host cells – NIH3T3 host cells, beta-gal luminescence, confirmation (AID 2044).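 Further: intracellular parasites grown in NIH/3T3 mouse fibroblasts as host cells; luminescent beta-galactosidase reporter signal from transgenic T. cruzi replicating inside host cells; inhibitors lower the luminescence signal.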 Type of assay: functional, cell-based.
Assay [8] is described as follows: NIH3T3 cell viability loss – ATP luminescence, mouse fibroblasts, counter-screen, dose response (AID 2010).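 Further: cells exposed to compound for about 90 hours before reading.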 Type of assay: functional, cell-based.
Assay [9] addresses T1, Type-1 angiotensin II receptor (Homo sapiens, UniProt P30556).
T1 sequence (P30556 whole entry): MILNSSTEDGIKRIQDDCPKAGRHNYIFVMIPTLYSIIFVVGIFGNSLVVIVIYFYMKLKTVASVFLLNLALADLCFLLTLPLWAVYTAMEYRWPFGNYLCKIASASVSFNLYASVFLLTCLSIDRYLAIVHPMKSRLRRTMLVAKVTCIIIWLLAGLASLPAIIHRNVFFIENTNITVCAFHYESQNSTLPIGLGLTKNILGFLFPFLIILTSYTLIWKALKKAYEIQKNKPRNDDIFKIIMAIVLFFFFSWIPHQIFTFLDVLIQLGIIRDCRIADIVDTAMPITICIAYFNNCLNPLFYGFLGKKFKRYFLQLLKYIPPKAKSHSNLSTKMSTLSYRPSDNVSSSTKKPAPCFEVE
Put plainly: antagonism of angiotensin II type 1 receptor – cell-based, uHTS hits, selectivity assay for APJ receptor antagonist project, dose response (AID 463214).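 Further: antagonist potency against angiotensin II stimulated AT1 response.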 Format: functional.

Assay [10] has as its target Beta-galactosidase (Escherichia coli, UniProt Q8VNN2). As to the kind of experiment: PubChem AID 485352. Type of assay: functional.
The target in assay [11] is ATP-dependent molecular chaperone HSP82 (Candida albicans (strain WO-1) (Yeast), UniProt C4YTQ8). Put plainly: steroid-induced GRE reporter decrease in yeast – S. cerevisiae, luminescence, Hsp90 inhibitor project, dose response (AID 2400).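 Further: beta-galactosidase luminescence from glucocorticoid response element reporter as proxy for Hsp90 function; inhibitor potency where signal loss means Hsp90 inhibition.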 Type of assay: functional, cell-based.
Assay [12] deals with T2, Serine/threonine-protein phosphatase (Candida dubliniensis (strain CD36 / CBS 7987 / NCPF 3949 / NRRLY-17841) (Yeast), UniProt B9W6M3).
T2 sequence (B9W6M3 whole entry): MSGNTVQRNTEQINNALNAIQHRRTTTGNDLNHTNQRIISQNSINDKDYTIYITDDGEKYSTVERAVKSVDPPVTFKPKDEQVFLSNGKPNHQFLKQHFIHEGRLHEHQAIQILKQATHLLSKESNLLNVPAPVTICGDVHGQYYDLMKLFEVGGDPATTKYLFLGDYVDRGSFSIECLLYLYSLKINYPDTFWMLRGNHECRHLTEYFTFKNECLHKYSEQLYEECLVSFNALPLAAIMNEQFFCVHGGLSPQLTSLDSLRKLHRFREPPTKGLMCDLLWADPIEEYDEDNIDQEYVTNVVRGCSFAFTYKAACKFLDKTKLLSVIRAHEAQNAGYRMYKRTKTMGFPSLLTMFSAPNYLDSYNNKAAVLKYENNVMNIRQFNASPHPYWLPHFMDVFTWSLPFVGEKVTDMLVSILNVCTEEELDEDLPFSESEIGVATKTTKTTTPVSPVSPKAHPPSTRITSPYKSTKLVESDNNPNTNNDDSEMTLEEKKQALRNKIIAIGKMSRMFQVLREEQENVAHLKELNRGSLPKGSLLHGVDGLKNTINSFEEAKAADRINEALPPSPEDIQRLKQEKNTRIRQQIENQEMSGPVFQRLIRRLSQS
As to the kind of experiment: blockers of CaCl2-induced CDRE-lacZ signaling – S. cerevisiae, luminescence, secondary, dose response (AID 2388).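 Further: yeast reporter cells carrying a calcineurin-responsive lacZ construct stimulated with calcium chloride; luminescent beta-galactosidase reporter signal in whole cells rather than isolated phosphatase activity; potency for inhibition where a drop in reporter signal means calcineurin blockade.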 Format: functional, cell-based.

A short description of assay [13]: NIH-3T3 fibroblast cytotoxicity, dose response, cytotoxicity control, cell-based, fluorescence, Alamar Blue, secondary assay (AID 2327).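 Further: NIH-3T3 mouse fibroblasts cultured with fluconazole at 8 µg/mL.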 Format: functional. (Resazurin is reduced to fluorescent resorufin, in cell work by metabolically active cells.)
Assay [14] in a line: fluconazole-exposed Candida albicans growth modulators – fluorescence, retest, confirmation (AID 2467). Format: functional, cell-based.
For assay [15], the target named is Dual specificity tyrosine-phosphorylation-regulated kinase 1A (Rattus norvegicus, UniProt Q63470). Format: biochemical, Homo sapiens.
The target in assay [16] is Peroxisome proliferator-activated receptor gamma/Nuclear receptor coactivator 3 (Homo sapiens, UniProt P37231). As to the kind of experiment: TR-FRET dose response biochemical High Throughput Screening assay for agonists of the steroid receptor coactivator 3 (SRC-3) recruitment by the peroxisome proliferator-activated receptor gamma (PPAR gamma): non-selective agonists. [Related pubchem assays: 1301 (Confirmation screen.), 1048 (Primary screen.)]. Type of assay: functional. (In general: Time-resolved FRET reads energy transfer from a long-lived donor to a nearby acceptor.)

The target of assay [17] is Peroxisome proliferator-activated receptor gamma/Nuclear receptor coactivator 1 (Homo sapiens, UniProt P37231). As to the kind of experiment: TR-FRET dose response biochemical High Throughput Screening assay for agonists of the steroid receptor coactivator 1 (SRC-1) recruitment by the peroxisome proliferator-activated receptor gamma (PPAR gamma): non-selective agonists. [Related pubchem assays (depositor defined):AID1300, AID1808, AID504735, AID631]. Type of assay: protein assay.

Assay [18] has as its target Peroxisome proliferator-activated receptor gamma/Nuclear receptor coactivator 2 (Homo sapiens, UniProt P37231). As to the kind of experiment: TR-FRET dose response biochemical High Throughput Screening assay for agonists of the steroid receptor coactivator 2 (SRC-2) recruitment by the peroxisome proliferator-activated receptor gamma (PPAR gamma): non-selective agonists. [Related pubchem assays: 1297, 1032 ]. Type of assay: functional.

Assay [19] has as its target T3, Rac GTPase-activating protein 1 (Homo sapiens, UniProt Q9H0H5).
T3 sequence (Q9H0H5 whole entry): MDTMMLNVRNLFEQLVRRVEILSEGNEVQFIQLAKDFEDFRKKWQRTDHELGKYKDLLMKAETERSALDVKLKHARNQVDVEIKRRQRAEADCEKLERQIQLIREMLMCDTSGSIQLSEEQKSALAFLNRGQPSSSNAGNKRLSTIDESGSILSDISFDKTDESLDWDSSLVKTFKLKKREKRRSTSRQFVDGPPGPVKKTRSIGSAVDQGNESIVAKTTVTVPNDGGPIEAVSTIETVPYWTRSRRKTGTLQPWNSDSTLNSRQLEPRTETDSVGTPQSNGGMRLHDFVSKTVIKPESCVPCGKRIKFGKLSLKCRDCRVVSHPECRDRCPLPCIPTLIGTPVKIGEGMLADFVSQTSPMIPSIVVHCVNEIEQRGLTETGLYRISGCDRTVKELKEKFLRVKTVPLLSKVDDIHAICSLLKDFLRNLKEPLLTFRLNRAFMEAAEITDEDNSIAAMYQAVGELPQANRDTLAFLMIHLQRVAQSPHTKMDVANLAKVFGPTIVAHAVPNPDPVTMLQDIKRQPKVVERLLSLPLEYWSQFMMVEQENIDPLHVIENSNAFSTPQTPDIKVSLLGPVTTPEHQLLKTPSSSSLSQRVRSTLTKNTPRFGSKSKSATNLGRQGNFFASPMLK
As to the kind of experiment: blockers of MgcRacGAP-driven Rac1 GTP hydrolysis – biochemical, ADP Hunter fluorescence, primary and confirmatory, confirmation (AID 624330). Type of assay: functional.

Assay [20] can be described thus: cells. Format: functional, cell-based.
Assay [21] deals with Heat shock protein HSP 90-alpha (Homo sapiens, UniProt P07900). Type of assay: functional, organism-based.
The test system of assay [22] is INS1. Put plainly: INS-1E survival protection against cytokine death – cell-based, luminescence, retest, dose response (AID 449756).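 Further: cell death triggered by IL-1 beta plus TNF-alpha plus IFN-gamma mixture; protective hits raise ATP signal compared with cytokine alone wells.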 Type of assay: functional. As to conditions: Rattus norvegicus.
Assay [23] is described as follows: cells. Type of assay: functional, cell-based. This is another data set of the same source.
Assay [24] can be described thus: M. tuberculosis H37Rv growth inhibitors, H37Rv strain (AID 1626). Type of assay: functional.

Chain of ATP-dependent molecular chaperone HSP82 (C4YTQ8 whole entry): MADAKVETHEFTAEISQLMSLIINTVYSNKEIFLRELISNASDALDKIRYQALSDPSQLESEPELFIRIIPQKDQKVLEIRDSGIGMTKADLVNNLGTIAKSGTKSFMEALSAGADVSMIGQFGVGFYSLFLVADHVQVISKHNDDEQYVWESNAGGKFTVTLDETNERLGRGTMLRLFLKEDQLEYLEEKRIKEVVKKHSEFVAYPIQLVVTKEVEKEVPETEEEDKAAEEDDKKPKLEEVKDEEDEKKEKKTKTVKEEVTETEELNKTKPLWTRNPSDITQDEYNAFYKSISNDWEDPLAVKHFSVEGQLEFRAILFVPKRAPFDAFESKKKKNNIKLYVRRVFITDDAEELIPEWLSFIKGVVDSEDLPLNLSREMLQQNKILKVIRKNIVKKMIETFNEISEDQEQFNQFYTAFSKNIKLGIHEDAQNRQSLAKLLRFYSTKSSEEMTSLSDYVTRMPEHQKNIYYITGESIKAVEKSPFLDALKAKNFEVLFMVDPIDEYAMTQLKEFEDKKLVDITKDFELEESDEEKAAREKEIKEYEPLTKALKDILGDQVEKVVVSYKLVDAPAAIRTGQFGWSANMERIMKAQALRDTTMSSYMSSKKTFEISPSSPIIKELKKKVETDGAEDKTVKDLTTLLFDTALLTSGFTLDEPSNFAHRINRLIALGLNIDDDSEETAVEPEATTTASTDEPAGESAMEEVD
Chain of Voltage-gated inwardly rectifying potassium channel KCNH2 (Q12809 whole entry): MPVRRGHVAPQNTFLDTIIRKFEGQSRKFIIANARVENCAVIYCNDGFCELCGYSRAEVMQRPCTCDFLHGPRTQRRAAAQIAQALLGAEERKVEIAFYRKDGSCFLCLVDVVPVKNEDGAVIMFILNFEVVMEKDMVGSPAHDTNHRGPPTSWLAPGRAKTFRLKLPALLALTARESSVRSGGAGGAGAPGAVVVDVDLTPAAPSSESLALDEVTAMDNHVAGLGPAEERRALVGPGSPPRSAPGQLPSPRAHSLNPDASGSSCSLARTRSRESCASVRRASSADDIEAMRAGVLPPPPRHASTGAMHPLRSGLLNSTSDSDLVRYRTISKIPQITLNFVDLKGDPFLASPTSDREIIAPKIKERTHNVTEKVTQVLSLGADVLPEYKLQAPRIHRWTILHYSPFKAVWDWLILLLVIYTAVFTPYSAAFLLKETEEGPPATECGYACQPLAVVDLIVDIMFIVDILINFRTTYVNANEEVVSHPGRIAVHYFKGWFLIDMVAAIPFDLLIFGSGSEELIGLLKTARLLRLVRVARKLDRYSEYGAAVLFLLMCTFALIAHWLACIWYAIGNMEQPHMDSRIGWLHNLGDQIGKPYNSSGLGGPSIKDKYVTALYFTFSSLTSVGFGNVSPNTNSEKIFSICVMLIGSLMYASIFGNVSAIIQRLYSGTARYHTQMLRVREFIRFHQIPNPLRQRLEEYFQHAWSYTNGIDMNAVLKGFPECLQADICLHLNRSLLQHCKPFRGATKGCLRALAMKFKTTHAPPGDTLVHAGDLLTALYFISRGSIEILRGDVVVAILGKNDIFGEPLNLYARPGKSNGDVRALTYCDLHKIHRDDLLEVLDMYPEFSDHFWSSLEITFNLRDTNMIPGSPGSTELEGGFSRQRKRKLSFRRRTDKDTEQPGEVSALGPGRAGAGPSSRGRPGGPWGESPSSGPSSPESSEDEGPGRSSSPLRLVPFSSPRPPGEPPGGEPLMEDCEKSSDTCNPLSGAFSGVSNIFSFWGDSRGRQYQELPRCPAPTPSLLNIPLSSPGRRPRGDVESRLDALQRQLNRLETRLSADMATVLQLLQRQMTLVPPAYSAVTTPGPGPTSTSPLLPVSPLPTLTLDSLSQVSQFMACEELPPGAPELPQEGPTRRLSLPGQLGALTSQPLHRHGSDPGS
Chain of Beta-galactosidase (Q8VNN2 whole entry): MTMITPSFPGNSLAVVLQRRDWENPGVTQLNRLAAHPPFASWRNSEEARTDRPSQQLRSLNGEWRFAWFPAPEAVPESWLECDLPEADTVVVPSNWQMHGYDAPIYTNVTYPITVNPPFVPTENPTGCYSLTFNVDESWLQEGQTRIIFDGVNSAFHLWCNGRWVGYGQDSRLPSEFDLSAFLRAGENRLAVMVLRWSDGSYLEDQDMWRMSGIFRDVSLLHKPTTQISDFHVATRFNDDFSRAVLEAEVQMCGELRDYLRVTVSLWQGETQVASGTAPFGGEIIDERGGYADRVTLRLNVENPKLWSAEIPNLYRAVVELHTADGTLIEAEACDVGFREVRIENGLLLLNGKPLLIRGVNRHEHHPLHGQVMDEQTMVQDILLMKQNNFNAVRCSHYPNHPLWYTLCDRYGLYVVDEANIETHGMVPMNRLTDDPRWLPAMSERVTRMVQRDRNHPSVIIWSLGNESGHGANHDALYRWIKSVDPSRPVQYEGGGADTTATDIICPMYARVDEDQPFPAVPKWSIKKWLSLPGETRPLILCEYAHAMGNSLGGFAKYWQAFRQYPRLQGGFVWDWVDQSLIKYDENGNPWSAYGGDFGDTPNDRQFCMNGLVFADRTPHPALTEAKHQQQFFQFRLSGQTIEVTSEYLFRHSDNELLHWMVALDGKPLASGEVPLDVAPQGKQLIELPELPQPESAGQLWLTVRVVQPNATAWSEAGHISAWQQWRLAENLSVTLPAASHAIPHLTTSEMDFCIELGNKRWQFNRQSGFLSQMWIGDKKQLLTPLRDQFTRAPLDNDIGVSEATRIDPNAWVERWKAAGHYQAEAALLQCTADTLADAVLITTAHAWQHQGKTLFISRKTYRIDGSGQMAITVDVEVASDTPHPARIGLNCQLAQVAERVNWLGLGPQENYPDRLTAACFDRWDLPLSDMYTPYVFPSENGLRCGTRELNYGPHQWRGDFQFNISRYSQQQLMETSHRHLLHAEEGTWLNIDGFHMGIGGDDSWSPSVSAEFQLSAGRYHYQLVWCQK
Chain of Cytochrome P450 2C9 (P11712 whole entry): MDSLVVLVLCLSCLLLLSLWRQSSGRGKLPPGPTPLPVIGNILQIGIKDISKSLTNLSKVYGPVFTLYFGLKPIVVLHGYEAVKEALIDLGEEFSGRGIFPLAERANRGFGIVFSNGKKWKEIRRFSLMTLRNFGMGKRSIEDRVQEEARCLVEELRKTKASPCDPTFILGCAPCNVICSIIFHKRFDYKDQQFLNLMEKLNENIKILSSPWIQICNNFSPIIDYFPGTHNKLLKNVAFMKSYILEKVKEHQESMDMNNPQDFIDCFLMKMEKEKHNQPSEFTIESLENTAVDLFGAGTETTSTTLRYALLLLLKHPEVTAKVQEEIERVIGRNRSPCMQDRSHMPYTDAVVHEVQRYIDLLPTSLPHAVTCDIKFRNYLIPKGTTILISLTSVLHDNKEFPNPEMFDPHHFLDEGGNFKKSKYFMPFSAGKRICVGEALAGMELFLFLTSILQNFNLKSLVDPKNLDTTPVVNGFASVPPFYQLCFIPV
Chain of Cytochrome P450 2C19 (P33261 whole entry): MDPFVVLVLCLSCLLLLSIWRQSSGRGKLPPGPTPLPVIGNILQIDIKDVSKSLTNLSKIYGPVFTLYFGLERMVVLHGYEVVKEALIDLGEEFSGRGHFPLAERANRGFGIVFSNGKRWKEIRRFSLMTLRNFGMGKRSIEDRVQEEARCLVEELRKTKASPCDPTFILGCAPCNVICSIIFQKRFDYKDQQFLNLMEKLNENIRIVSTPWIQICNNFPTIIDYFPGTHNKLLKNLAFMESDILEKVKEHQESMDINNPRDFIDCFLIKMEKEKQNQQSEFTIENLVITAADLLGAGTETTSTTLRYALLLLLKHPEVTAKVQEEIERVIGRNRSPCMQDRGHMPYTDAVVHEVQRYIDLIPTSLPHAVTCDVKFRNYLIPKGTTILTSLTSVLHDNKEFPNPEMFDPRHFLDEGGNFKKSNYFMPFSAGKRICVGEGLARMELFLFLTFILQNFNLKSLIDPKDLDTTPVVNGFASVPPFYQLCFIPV

Turning to `CCCOC(=O)c1c(-c2ccccc2)nc(CC)c(C(=O)SCC)c1CCC`, the figures for the AC50 in assay [1], in [3] and in assay [4] were 15.8 µM (inconclusive), 39.8 µM (inconclusive) and 7.94 µM (inconclusive), respectively. In assay [2], the CC50 (usually the concentration that lowers cell viability or growth by half) is 35.6 µM (active).

In the case of `CC(=O)c1cccc(NS(=O)(=O)c2cc(-c3cnc(C4CC4)o3)ccc2C)c1`, the AC50 (in general, the concentration giving half of the maximal activity seen) is 25 µM (active) in [5] and 1.03 µM (active) in assay [6].

With `O=C(C1=C[C@H](c2ccc(C(F)(F)F)cc2)C[C@H](OCc2ccc(CO)cc2)O1)N1CCN(Cc2ccc3c(c2)OCO3)CC1`, the AC50 in assay [5] was 25.8 µM (active); in [6], 4.74 µM (active). The EC50 (as a rule, the concentration needed to bring the measured effect to its halfway point) was 0.265 µM (active) in [7] and > 60 µM (not active) in assay [8].

`O=C(CNC(=O)c1ccco1)NCC(=O)OCC(=O)c1ccc(Cl)c([N+](=O)[O-])c1`: in assay [9], the IC50 (in general, the concentration at which inhibition is half-maximal) is 7.54 µM (active). For the same molecule, the EC50 in assay [10] was > 40 µM (inactive).

`O=C(c1cccc(Br)c1)c1coc2ccc(O)cc12`: the concentration at half-maximal activity (AC50) in [5] was 23.1 µM (active); in assay [6], 0.913 µM (active).

In the case of `Nc1c(S(=O)(=O)c2ccccc2)c2nc3ccccc3nc2n1CCN1CCOCC1`, the EC50 in [11] was > 160 µM (inactive); in assay [12], > 180 µM (inactive); in [13] it was > 160 µM (inactive); in [14] it was 0.874 µM (active).

As to `COc1cc(-c2nc3ccccc3s2)ccc1O`, the AC50 in assay [15] is 7.81 µM (active). For the same molecule, the EC50 is > 79.4 µM (not active) in assay [16], 11.7 µM (inactive) in assay [17] and 13 µM (not active) in [18]. Moreover, the IC50 in assay [19] was 16.1 µM (active).

On to `CNC(=O)Nc1cc(C(F)(F)F)cc(C(F)(F)F)c1`, for which the EC50 in assay [11] is > 150 µM (inactive); in [12] it was > 180 µM (inactive); in [13], > 150 µM (inactive); in [14], 1.34 µM (active).

Regarding `COc1cccc(/C=N/NC(=O)C(=O)Nc2ccccc2OC(F)(F)C(F)F)c1O`, the EC50 was 10.6 µM (active) in assay [11]; > 350 µM (not active) in assay [20]; > 180 µM (inactive) in [12]; > 160 µM (inactive) in assay [13]; 0.46 µM (active) in assay [14]; 92.8 µM (active) in assay [23]. Moreover, the AC50 in [21] is 4.2 µM (active); in [22] it was 2.77 µM (active).

Consider `COc1ccc(/N=C2/C(=O)N3c4c(cccc42)C(C)=CC3(C)C)cc1`, for which the 50% inhibitory concentration (IC50) in assay [24] is > 100 µM (active); in [9] it was > 40 µM (not active). The EC50 in assay [10] is > 40 µM (inactive).

Take `Cc1cc(C(C)(C)C)c(O)c(C(C)(C)C)c1` [BUTYLATED HYDROXYTOLUENE]: the AC50 in assay [1] is 11.2 µM (inconclusive).

As for `c1ccc(NNc2ccccc2)cc1` [HYDRAZOBENZENE], the AC50 in assay [1] was 35.5 µM (inconclusive).
